Key:
injured tissues = settings: Prajapati et al., Mol Imaging 2009; cited from earlier work
4T1-Luc cells = assay: Dry ice assay: binding to dead cells or uptake by living cells; type: cell-based, mouse; settings: dry-ice killed 4T1-Luc cells in the center of the wells, 15 min at 37° C.
Experimental: 4T1-Luc cells were seeded onto individual wells from a 12-well cell culture plate and allowed to grow to confluence in RPMI media supplemented with 10% fetal bovine serum. 4T1-luc2 mouse breast cancer cells were used as the adherence of these cells to the bottom of the culture well remains strong after dry-ice treatment. To initiate cryo-induced cell death, media was discarded and dry-ice was applied to the bottom center of each individual well for 15 sec. Subsequently, fresh medium with different concentrations of the first compound of the invention were added and cells were incubated at 37° C. for 15 min. After incubation, the media were discarded and the cells were washed twice with serum free medium and 0.5 ml fresh RPMI was added to each well. Cells were then visualized using a Licor Odyssey equipped with 700 and 800 nm diode laser. Luciferin ([…]) was also added to each well and fluorescence and bioluminescence images were acquired using an IVIS Spectrum (fluorescence: excitation filter: 710 nm, emission filter: 820 nm, exposure time: 90 s, bin: 8, f/stop: 2, field of view: 12.9 cm) (bioluminescence: open filter, exposure time: 30 s, bin: 8, f/stop: 1, field of view: 12.9 cm). Some culture wells were also stained for 15 min with Trypan Blue (0.2% in culture medium) to confirm cell death.

intracellular proteins = assay: Identification of intracellular proteins that bind HQ5 (lysate incubated with dye); type: binding; settings: lysate incubated with HQ5 and CW800
Experimental: FIG. 12 relates to identification of intracellular proteins that bind HQ5. In order to try to identify the protein to which the HQ-dyes bind Lysate is (after pre-treatment) incubated with HQ5 and CW800. Exact protocol and technique not specified. […] A specific HQ5-binding protein has a molecular weight of approx. 40 kD.

4T1 cells = assay: Confocal microscopy of Gambogic acid treated 4T1 cells; type: cell-based, mouse
Source text: Gambogic acid kills cells leading to membrane disruption. […] Annexin-V-FITC specifically binds to phosphatidyl serine (PS) expressed on the outside of the cell membrane of apoptotic and necrotic cells.
Annexin V, however, can next to late apoptotic and necrotic cells also stain cells in an early stage of apoptosis.

CC1(C)C(=CC=C2CCCC(C=CC3=[N+](CCCCS(=O)(=O)[O-])c4ccc5ccccc5c4C3(C)C)=C2Cl)N(CCCCS(=O)(=O)[O-])c2ccc3ccccc3c21.[Na+] [IR-820]
blood pool behaviour (injured tissues): is a blood pool agent that just simply leaks out of blood vessels after disruption of the vessels

CC1(C)C(/C=C/C2=C(Oc3ccc(S(=O)(=O)O)cc3)C(=C/C=C3/N(CCCCS(=O)(=O)O)c4ccc(S(=O)(=O)[O-])cc4C3(C)C)/CCC2)=[N+](CCCCCC(=O)O)c2ccc(S(=O)(=O)O)cc21 [CW800]
binding to dead cells (4T1-Luc cells): specifically and dose-dependently bind to dead cells | proteins bound, HQ5 compared with CW800 (intracellular proteins): share some but also have different proteins they bind with

B1: Annexin V: binds phosphatidyl serine on the outside of the membrane of apoptotic and necrotic cells (protein, UniProt P08758 2-320, looked up)
Annexin A5: AQVLRGTVTDFPGFDERADAETLRKAMKGLGTDEESILTLLTSRSNAQRQEISAAFKTLFGRDLLDDLKSELTGKFEKLIVALMKPSRLYDAYELKHALKGAGTNEKVLTEIIASRTPEELRAIKQVYEEEYGSSLEDDVVGDTSGYYQRMLVVLLQANRDPDAGIDEAQVEQDAQALFQAGELKWGTDEEKFITIFGTRSVSHLRKVFDKYMTISGFQIEETIDRETSGNLEQLLLAVVKSIRSIPAYLAETLYYAMKGAGTDDHTLIRVMVSRSEIDLFNIRKEFRKNFATSLYSMIKGDTSGDYKKALLLLCGEDD
modifications: FITC label
number of cells stained (4T1 cells): stains a larger number of cells than both HQ5 and EtD

From US10641771B2, “Protein target complex” (HQ Medical Netherlands B.V., priority 2012, dated 2020)
